Experimental data as given in patent US20250248209A1, “LIGHT-EMITTING DEVICE” (SEMICONDUCTOR ENERGY LABORATORY CO., LTD., priority 2024, published 2025).
In brackets after ≈: the same amount, converted by molar mass. Entries after “also recorded” stand apart in the source; their conditions may differ.

Experiment: Solubility test of each organic compound in pure water by LC-MS analysis
Format: physicochemical
Conditions: 1 mg compound in 1 mL water, ultrasonic waves five minutes, filtered, evaluated from LC peak area; for solubility at 5 min: pure water, thermodynamic from solid
Description: In the LC-MS analysis, liquid chromatography (LC) separation was carried out with ACQUITY UPLC (Waters Corporation), and mass spectrometry (MS) analysis was carried out with Xevo G2 Tof MS (Waters Corporation). Note that this analysis was performed on Hid2Phen, Pyrrd-Phen, and PrdP2Phen. ACQUITY UPLC BEH C8 (2.1×100 mm, 1.7 μm) was used as a column for the LC separation. Acetonitrile was used for Mobile Phase A and a 0.1% aqueous solution of formic acid was used for Mobile Phase B. The injection amount of the sample was 5.0 μL. Note that in the analysis, the wavelength of a photodiode array detector was set to 263 nm±1 nm.
Then, in a 5-mL sample bottle, 1 mg of each organic compound was put and 1 mL of water was added thereto. The mixture was irradiated with ultrasonic waves for five minutes. The mixture was filtered through a membrane filter to remove the solid. The resulting solution was subjected to the LC-MS analysis to create a chromatogram. The solubility was evaluated from the area of a peak in the chromatograph.

| solubility at 5 min [µg/mL] | SMILES | Solubility in pure water |
| --- | --- | --- |
| ≥ 50 | c1cc(N2CCCC2)c2ccc3c(N4CCCC4)ccnc3c2n1 [Pyrrd-Phen, 4,7-di-1-pyrrolidinyl-1,10-phenanthroline] | – |
| 5.5 (≈ 12.9 µM) | c1cc(N2CC3CCCCC3C2)c2ccc3c(N4CC5CCCCC5C4)ccnc3c2n1 (stereo not drawn) [Hid2Phen, 4,7-di(2,3,3a,4,5,6,7,7a-octahydro-^1H-isoindol-2-yl)-1,10-phenanthroline] | – |
| – | c1cc(-c2ccc(N3CCCC3)cc2)c2ccc3c(-c4ccc(N5CCCC5)cc4)ccnc3c2n1 [PrdP2Phen, 4,7-bis[4-(1-pyrrolidinyl)phenyl]-1,10-phenanthroline] | below the lower detection limit; also recorded: extremely low solubility in pure water; also recorded: Not detected |
